Laboratory results taken from patent publication US11306094B2, “Stable formulations of 5,10-methylene-(6R)-tetrahydrofolic acid” (MERCK & CIE, priority 2016, dated 2022).
Structures can show the parent of a compound that is named as a salt. Where two headings read alike, the source gives them in different places.

Key:
[1] = physiological common salt solution, +25° C., cited from earlier work
[2] = Crystal form stability by XRPD (85% ethanol; high temperature/low pressure); format: physicochemical
Method: (§1) (b) Stability in 85% Ethanol at Room Temperature (6R)-5,10-CH2-THF hemisulfate salt (3.01 g) was dispersed in 100 ml 85% EtOH at room temperature and stirred for 5 h, then filtered and dried at 30° C. and 8 mbar for 12 hours (over night). […] (c) Stability at High Temperature/Low Pressure (6R)-5,10-CH2-THF hemisulfate salt (2.17 g) was placed in a drying chamber at 65° C. and 8 mbar for 21 h. […] (d) Long-Term Stability of (6R)-5,10-CH2-THF Hemisulfate Salt and Pharmaceutical Composition Thereof In order to determine the long-term stabilities of (6R)-5,10-CH2-THF hemisulfate salt, the salts were stored in air at 25° C. and at 60% relative humidity. The content of (6R)-5,10-CH2-THF hemisulfate salt remaining was measured by HPLC at periodic intervals and is given by comparison with the initial value (% rel.).

[3] = Suspension equilibration stability; format: physicochemical
Source text: (a) Suspension equilibration of (6R)-5,10-CH2-THF hemisulfate salt as starting material at temperatures other than room temperature in a variety of solvents and mixture are summarized in Table 10: […]

[4] = Phase I/II study ISO-CC-002, pharmacokinetics/pharmacodynamics versus Levoleucovorin; format: in vivo; details: compared to Levoleucovorin, 32 colon cancer patients
Method: (b) In a single-blinded, randomized phase I/II study (ISO-CC-002) performed on 32 patients diagnosed with colon cancer the pharmacokinetic and pharmacodynamic properties of (6R)-5,10-CH2-THF hemisulfate compared to Levoleucovorin in tumor tissue, adjacent mucosa and blood plasma were investigated. The study was performed at the Sahlgrenska University Hospital in Goteborg, Sweden. […] The concentrations of methylenetetrahydrofolate and tetrahydrofolate in both tumor and adjacent mucosa were also much higher after administration of (6R)-5,10-CH2-THF hemisulfate than those obtained after administration of Levoleucovorin.

[5] = Long-term stability of hemisulfate salt, HPLC content; format: physicochemical; details: salt stored in air, 25° C./60% rh
Method: as §1

Clinical safety = format: in vivo; details: patients, doses of up to 200 mg/m^2
[6] = Comparative stability hemisulfate versus sulfate salt (Example 4-1); format: physicochemical
Method: Stability studies were performed as in the examples above. The conditions for the studies are provided with each data set provided. Some of the data in this example is from previous examples herein, but are reproduced here to provide some kind of a side-by-side nature of the presentation of the results.

[7] = Content of degradation product 10-formyltetrahydrofolic acid in sulfate salt, HPLC; format: physicochemical
Method: (b) Content of the degradation product 10-formyl-(6R)-tetrahydrofolic acid (6R)-5,10-CH2-THF sulfate salt was prepared according to literature procedures (EP 0 537 492 B1) and stored for 15 months at −20° C. Subsequently, samples of the product were stored at 5° C. resp. at 25° C. and 60% relative humidity resp. at 40° C. and 75% relative humidity. The content of 10-formyltetrahydrofolic acid, a major degradation product, was measured by HPLC at periodic intervals and disclosed as absolute values (% w/w).

[8] = Long-term stability of sulfate salt, HPLC content; format: physicochemical
Method: In order to compare the long-term stabilities of (6R)-5,10-CH2-THF hemisulfate salt to the long-term stabilities of (6R)-5,10-CH2-THF sulfate salt prepared according to EP 0 537 492 B1, stability data for (6R)-5,10-CH2-THF sulfate salt has been generated at various temperatures and humidities. (a) Stability of (6R)-5,10-CH2-THF Sulfate (6R)-5,10-CH2-THF sulfate salt was prepared according to literature procedures (EP 0 537 492 B1) and stored for 15 months at −20° C. Subsequently, samples of the product were stored at 5° C. resp. at 25° C. and 60% relative humidity resp. at 40° C. and 75% relative humidity. The content of (6R)-5,10-CH2-THF sulfate salt remaining in the sample was measured by HPLC at periodic intervals. The content of (6R)-5,10-CH2-THF sulfate was compared to the initial value at the time of preparation (% rel.).

[9] = after 15 months at −20° C., then 5° C., 0 months
[10] = after 15 months at −20° C., then 5° C., 6 months
[11] = after 15 months at −20° C., then 25° C./60% rh, 0 months
[12] = after 15 months at −20° C., then 25° C./60% rh, 6 months
[13] = after 15 months at −20° C., then 40° C./75% rh, 0 months
[14] = after 15 months at −20° C., then 40° C./75% rh, 6 months

Nc1nc2c(c(=O)[nH]1)N1CN(c3ccc(C(=O)N[C@@H](CCC(=O)O)C(=O)O)cc3)C[C@H]1CN2 (mixture of isomers) [5,10-methylene-(6R,S)-tetrahydrofolic acid]
% relative stability ([1]; with the exclusion of air, 0 hours): 100.0%
% relative stability ([1]; with the exclusion of air, 4.0 hours): 58.0%
% relative stability ([1]; with the exclusion of air, 24.0 hours): 38.0%
% relative stability ([1]; with the exclusion of air, 26.0 hours): 18.0%
% relative stability ([1]; with the exclusion of air, 48.0 hours): 8.0%
% relative stability ([1]; without the exclusion of air, 0 hours): 100.0%
% relative stability ([1]; without the exclusion of air, 4.0 hours): 84%
% relative stability ([1]; without the exclusion of air, 24.0 hours): 12.0%
% relative stability ([1]; without the exclusion of air, 26.0 hours): 8.0%
% relative stability ([1]; without the exclusion of air, 48.0 hours): 6.0%

Nc1nc2c(c(=O)[nH]1)N1CN(c3ccc(C(=O)N[C@@H](CCC(=O)O)C(=O)O)cc3)C[C@H]1CN2 [(6R)-5,10-CH2-THF hemisulfate salt, N-[4-[(6aR)-3-amino-1,2,5,6,6a,7-hexahydro-1-oxoimidazo[1,5-f]pteridin-8(9H)-yl]benzoyl]-L-glutamic acid]
X-ray pattern of crystal form Type 1 (XRPD) ([2]; drying chamber 65° C. and 8 mbar for 21 h): remained unchanged
X-ray pattern of crystal form Type 1 (XRPD) ([2]; stirred in 85% EtOH at room temperature for 5 h): remained unchanged
Observation (suspension equilibration stability) ([3]; 2-PrOH with ~2 mM L-ascorbic acid, 40° C., 3 d): No change
Observation (suspension equilibration stability) ([3]; AcOH saturated with L-ascorbic acid, 50° C., 1 d): No change
Observation (suspension equilibration stability) ([3]; AcOH saturated with L-ascorbic acid, 50° C., 5 d): No change
Observation (suspension equilibration stability) ([3]; H2O, 5° C., 6 d): No change
Observation (suspension equilibration stability) ([3]; MeCN saturated with L-ascorbic acid, 50° C., 5 d): No change
Observation (suspension equilibration stability) ([3]; MeOH/formic acid 1:1, 50° C., 2 h): No change
Observation (suspension equilibration stability) ([3]; PEG4500/EtOH 1:9 saturated with L-ascorbic acid, 50° C., 7 d): No change
Observation (suspension equilibration stability) ([3]; THF with ~2 mM L-ascorbic acid, 40° C., 3 d): No change
Observation (suspension equilibration stability) ([3]; formic acid/THF 1:3, 10-20° C., 6 d): No change
concentrations of methylenetetrahydrofolate and tetrahydrofolate in tumor and adjacent mucosa [4]: much higher
exposure and peak plasma concentrations of methylenetetrahydrofolate [4]: substantially greater
(6R)-5,10-CH2—THF hemisulfate (% rel) ([5]; 0 months): 100.0 % rel
(6R)-5,10-CH2—THF hemisulfate (% rel) ([5]; 3 months, listed as (6R)-5,10-CH2—THF hemisulfate (batch 1)): 99.7 % rel
(6R)-5,10-CH2—THF hemisulfate (% rel) ([5]; 3 months, listed as (6R)-5,10-CH2—THF hemisulfate (batch 2)): 99.9 % rel
(6R)-5,10-CH2—THF hemisulfate (% rel) ([5]; 3 months, listed as (6R)-5,10-CH2—THF hemisulfate (batch 3)): 99.5 % rel
(6R)-5,10-CH2—THF hemisulfate (% rel) ([5]; 6 months): 99.5 % rel
(6R)-5,10-CH2—THF hemisulfate (% rel) ([5]; 6 months, listed as (6R)-5,10-CH2—THF hemisulfate (batch 2)): 99.9 % rel
(6R)-5,10-CH2—THF hemisulfate (% rel) ([5]; 9 months, listed as (6R)-5,10-CH2—THF hemisulfate (batch 1)): 99.6 % rel
(6R)-5,10-CH2—THF hemisulfate (% rel) ([5]; 9 months, listed as (6R)-5,10-CH2—THF hemisulfate (batch 2)): 100.0 % rel
(6R)-5,10-CH2—THF hemisulfate (% rel) ([5]; 9 months, listed as (6R)-5,10-CH2—THF hemisulfate (batch 3)): 99.4 % rel
(6R)-5,10-CH2—THF hemisulfate (% rel) ([5]; 12 months, listed as (6R)-5,10-CH2—THF hemisulfate (batch 1)): 99.2 % rel
(6R)-5,10-CH2—THF hemisulfate (% rel) ([5]; 12 months, listed as (6R)-5,10-CH2—THF hemisulfate (batch 2)): 99.7 % rel
(6R)-5,10-CH2—THF hemisulfate (% rel) ([5]; 12 months, listed as (6R)-5,10-CH2—THF hemisulfate (batch 3)): 99.1 % rel
(6R)-5,10-CH2—THF hemisulfate (% rel) ([5]; 18 months, listed as (6R)-5,10-CH2—THF hemisulfate (batch 1)): 99.2 % rel
(6R)-5,10-CH2—THF hemisulfate (% rel) ([5]; 18 months, listed as (6R)-5,10-CH2—THF hemisulfate (batch 2)): 99.4 % rel
(6R)-5,10-CH2—THF hemisulfate (% rel) ([5]; 18 months, listed as (6R)-5,10-CH2—THF hemisulfate (batch 3)): 99.0 % rel
(6R)-5,10-CH2—THF hemisulfate (% rel) ([5]; 24 months, listed as (6R)-5,10-CH2—THF hemisulfate (batch 1)): 99.4 % rel
(6R)-5,10-CH2—THF hemisulfate (% rel) ([5]; 24 months, listed as (6R)-5,10-CH2—THF hemisulfate (batch 2)): 99.4 % rel
(6R)-5,10-CH2—THF hemisulfate (% rel) ([5]; 24 months, listed as (6R)-5,10-CH2—THF hemisulfate (batch 3)): 99.0 % rel
(6R)-5,10-CH2—THF hemisulfate (% rel) ([5]; 36 months, listed as (6R)-5,10-CH2—THF hemisulfate (batch 1)): 98.5 % rel
(6R)-5,10-CH2—THF hemisulfate (% rel) ([5]; 36 months, listed as (6R)-5,10-CH2—THF hemisulfate (batch 2)): 99.0 % rel
safety (Clinical safety): safe
stability compared with the sulfate salt ([6]; 3 batches, various temperatures): remarkably more stable
stability at elevated temperature ([6]; +40° C. and relative humidity of 75%): excellent stability

Nc1nc2c(c(=O)[nH]1)N1CN(c3ccc(C(=O)N[C@@H](CCC(=O)O)C(=O)O)cc3)C[C@H]1CN2 [(6R)-5,10-CH2-THF sulfate salt, 5,10-methylene-(6R)-tetrahydrofolic acid]
10-formyltetrahydrofolic acid (% w/w) [7, 9]: 1.37 % w/w
10-formyltetrahydrofolic acid (% w/w) [7, 10]: 1.47 % w/w
10-formyltetrahydrofolic acid (% w/w) [7, 11]: 1.37 % w/w
10-formyltetrahydrofolic acid (% w/w) [7, 12]: 1.89 % w/w
10-formyltetrahydrofolic acid (% w/w) [7, 13]: 1.37 % w/w
10-formyltetrahydrofolic acid (% w/w) [7, 14]: 2.36 % w/w
10-formyltetrahydrofolic acid (% w/w) ([7]; −20° C., 0 months): 0.53 % w/w
10-formyltetrahydrofolic acid (% w/w) ([7]; −20° C., 15 months): 1.37 % w/w
(6R)-5,10-CH2—THF sulfate (% rel.) [8, 9]: 98.7 % rel.
(6R)-5,10-CH2—THF sulfate (% rel.) [8, 10]: 97.3 % rel.
(6R)-5,10-CH2—THF sulfate (% rel.) [8, 11]: 98.7 % rel.
(6R)-5,10-CH2—THF sulfate (% rel.) [8, 12]: 95.5 % rel.
(6R)-5,10-CH2—THF sulfate (% rel.) [8, 13]: 98.7 % rel.
(6R)-5,10-CH2—THF sulfate (% rel.) [8, 14]: 95.0 % rel.
(6R)-5,10-CH2—THF sulfate (% rel.) ([8]; −20° C., 0 months): 100.0 % rel.
(6R)-5,10-CH2—THF sulfate (% rel.) ([8]; −20° C., 15 months): 98.7 % rel.
